Test results as given in ChEMBL document CHEMBL1201862, “PubChem BioAssay data set” (2004).
The source made the active and inactive calls.

What was measured:
[1] = target: T1, Sentrin-specific protease 8 (Homo sapiens, UniProt Q96LD8); type: functional
T1 sequence (Q96LD8 whole entry): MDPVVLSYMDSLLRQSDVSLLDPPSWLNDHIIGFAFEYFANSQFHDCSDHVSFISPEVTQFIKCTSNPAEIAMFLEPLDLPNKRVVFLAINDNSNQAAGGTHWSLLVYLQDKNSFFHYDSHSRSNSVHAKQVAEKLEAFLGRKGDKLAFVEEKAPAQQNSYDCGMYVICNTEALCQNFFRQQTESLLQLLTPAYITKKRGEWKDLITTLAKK

[2] = target: T1, Sentrin-specific protease 8; type: functional; remark: listed apart in the source
[3] = target: T2, Caspase-3 (Homo sapiens, UniProt P42574); assay: Dose-response confirmation of uHTS inhibitor hits of Sentrin-Specific Protease 8 in a Caspase-3 Fluorescence assay.; type: functional
T2 sequence (P42574 whole entry): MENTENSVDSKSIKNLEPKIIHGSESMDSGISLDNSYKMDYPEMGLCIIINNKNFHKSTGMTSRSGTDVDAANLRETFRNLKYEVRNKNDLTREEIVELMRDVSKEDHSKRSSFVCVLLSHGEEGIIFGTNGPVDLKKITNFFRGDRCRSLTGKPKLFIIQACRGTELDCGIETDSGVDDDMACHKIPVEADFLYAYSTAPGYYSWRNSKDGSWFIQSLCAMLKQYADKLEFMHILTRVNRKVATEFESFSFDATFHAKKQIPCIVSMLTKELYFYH

[4] = target: T3, Low molecular weight phosphotyrosine protein phosphatase (Homo sapiens, UniProt P24666); type: functional; details: read-out: IC50_Mean
T3 sequence (P24666 whole entry): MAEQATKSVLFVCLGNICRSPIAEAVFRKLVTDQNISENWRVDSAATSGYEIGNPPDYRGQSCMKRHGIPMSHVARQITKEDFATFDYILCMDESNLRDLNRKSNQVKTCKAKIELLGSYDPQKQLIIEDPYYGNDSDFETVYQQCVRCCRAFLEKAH

[5] = target: T3, Low molecular weight phosphotyrosine protein phosphatase; type: functional; details: read-out: IC50_Mean; remark: listed apart in the source
[6] = test system: BJ; assay: growth inhibition of engineered Ras-driven BJ cells – cell-based, alamar blue fluorescence, cherrypicked samples, dose response (AID 2631); type: functional; details: Homo sapiens;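 note: confirmatory dose-response assay in RAS-dependent BJ fibroblasts engineered with TERT, LT and ST, with cytotoxicity read by fluorescence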
[7] = luciferase reporter signal suppression in cells – H4 neuroglioma cells, luminescence, dose response (AID 1990); type: functional, cell-based
[8] = alpha-synuclein stem-loop luciferase translation blockers – H4 neuroglioma cells, luminescence, confirmation (AID 1988); type: functional, cell-based
[9] = target: T4, Heat shock factor protein 1 (Mus musculus, UniProt P38532); assay: enhancement of HSF1-driven luciferase signal – cell-based, NIH3T3, luminescence, dose retest, confirmation (AID 435004); type: functional;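 note: stress induced by proteasome inhibitor MG132 added 30 min after compound; luciferase reporter driven by HSF1 response element in NIH3T3 cells; actives raise luminescence as potentiators of the MG132 stress response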
T4 sequence (P38532 whole entry): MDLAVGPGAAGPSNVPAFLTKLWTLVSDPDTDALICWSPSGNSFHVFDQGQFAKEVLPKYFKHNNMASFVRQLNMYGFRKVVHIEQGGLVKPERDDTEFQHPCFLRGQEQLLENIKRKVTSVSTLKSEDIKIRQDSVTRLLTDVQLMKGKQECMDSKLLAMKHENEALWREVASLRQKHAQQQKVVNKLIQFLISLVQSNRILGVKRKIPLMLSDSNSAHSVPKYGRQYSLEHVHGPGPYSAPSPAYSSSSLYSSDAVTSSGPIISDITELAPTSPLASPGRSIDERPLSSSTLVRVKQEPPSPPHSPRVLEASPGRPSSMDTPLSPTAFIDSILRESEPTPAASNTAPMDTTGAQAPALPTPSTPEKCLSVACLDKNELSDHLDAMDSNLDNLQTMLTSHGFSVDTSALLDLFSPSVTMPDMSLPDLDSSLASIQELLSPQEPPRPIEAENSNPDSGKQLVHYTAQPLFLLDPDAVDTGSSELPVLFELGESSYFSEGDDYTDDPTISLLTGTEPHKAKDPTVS

[10] = DRD fibroblast viability loss – cell-based, non-viral oncogenic, luminescence, dose response (AID 1934); type: functional; details: Homo sapiens
[11] = Fluorescence-based cell-based high throughput dose response assay for inhibitors of the interaction of nucleotide-binding oligomerization domain containing 2 (NOD2) and the receptor-interacting serine-threonine kinase 2 (RIPK2).; type: functional; details: Homo sapiens
[12] = test system: BJ; assay: cells; type: functional, cell-based; details: Homo sapiens
[13] = test system: BJ; assay: BJ-TERT-LT-ST fibroblast viability loss – cell-based, RAS-independent, luminescence, dose response (AID 1935); type: functional; details: Homo sapiens;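 note: BJ fibroblasts immortalized with TERT plus LT and ST oncogenes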
[14] = test system: BJ; assay: BJ-TERT fibroblast viability loss – cell-based, RAS-independent, luminescence, dose response (AID 1933); type: functional; details: Homo sapiens
[15] = target: T5, DNA repair protein RAD52 homolog (Homo sapiens, UniProt P43351); type: functional, biochemical
T5 sequence (P43351 whole entry): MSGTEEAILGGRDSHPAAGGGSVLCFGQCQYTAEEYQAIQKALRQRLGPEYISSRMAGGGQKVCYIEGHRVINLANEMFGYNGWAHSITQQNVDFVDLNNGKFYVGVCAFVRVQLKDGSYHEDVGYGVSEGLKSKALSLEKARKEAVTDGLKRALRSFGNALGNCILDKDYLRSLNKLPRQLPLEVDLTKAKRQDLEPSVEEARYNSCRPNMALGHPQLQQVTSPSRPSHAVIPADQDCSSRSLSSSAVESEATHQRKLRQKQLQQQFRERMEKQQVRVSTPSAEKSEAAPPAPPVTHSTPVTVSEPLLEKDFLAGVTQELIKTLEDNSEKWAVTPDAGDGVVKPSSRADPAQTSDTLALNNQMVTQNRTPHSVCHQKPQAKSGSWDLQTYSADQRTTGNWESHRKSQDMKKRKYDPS

[16] = Luminescence Cell-Based Dose Response HTS to Identify Inhibitors of 5'UTR Stem-Loop Driven Prion Protein mRNA Translation in H4 Neuroglioblastoma Cells. [Related pubchem assays: 1827 (Project Summary), 1813 (Primary HTS)]; type: functional
[17] = target: Beta Lactamase (Pseudomonas aeruginosa, UniProt Q932Y6); assay: BLA reporter interference, concentration series – BLA reporter cells, FRET fluorescence, artefact control for NOD2-RIPK2 interaction inhibitor project, dose response (AID 651552); type: functional, cell-based
Chain of Beta Lactamase (Q932Y6 whole entry): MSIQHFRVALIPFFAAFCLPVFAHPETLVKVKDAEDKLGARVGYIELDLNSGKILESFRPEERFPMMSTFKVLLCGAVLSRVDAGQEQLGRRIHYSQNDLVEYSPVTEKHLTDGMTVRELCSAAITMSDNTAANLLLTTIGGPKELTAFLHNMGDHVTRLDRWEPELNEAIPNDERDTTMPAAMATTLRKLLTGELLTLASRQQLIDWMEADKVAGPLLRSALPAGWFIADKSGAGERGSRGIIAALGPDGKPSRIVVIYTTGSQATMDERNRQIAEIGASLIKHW

[18] = target: Protein S100-A4 (Homo sapiens, UniProt P26447); assay: human S100A4 peptide interaction inhibition curves – biochemical, fluorescence polarization, cherry-picked hits, dose response (AID 687001); type: functional
Chain of Protein S100-A4 (P26447 whole entry): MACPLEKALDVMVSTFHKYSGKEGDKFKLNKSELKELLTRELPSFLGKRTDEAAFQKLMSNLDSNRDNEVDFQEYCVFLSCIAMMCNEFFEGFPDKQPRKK

[19] = target: Paired box protein Pax-8 (Homo sapiens, UniProt Q06710); assay: PAX8 transcriptional activity inhibition in RMG-I – RMG-I cells, luciferase, cherry-pick, dose response (AID 687027); type: functional, cell-based;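 note: luciferase reporter driven by Pax8 target thyroperoxidase promoter measured by SteadyGlo luminescence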
Chain of Paired box protein Pax-8 (Q06710 whole entry): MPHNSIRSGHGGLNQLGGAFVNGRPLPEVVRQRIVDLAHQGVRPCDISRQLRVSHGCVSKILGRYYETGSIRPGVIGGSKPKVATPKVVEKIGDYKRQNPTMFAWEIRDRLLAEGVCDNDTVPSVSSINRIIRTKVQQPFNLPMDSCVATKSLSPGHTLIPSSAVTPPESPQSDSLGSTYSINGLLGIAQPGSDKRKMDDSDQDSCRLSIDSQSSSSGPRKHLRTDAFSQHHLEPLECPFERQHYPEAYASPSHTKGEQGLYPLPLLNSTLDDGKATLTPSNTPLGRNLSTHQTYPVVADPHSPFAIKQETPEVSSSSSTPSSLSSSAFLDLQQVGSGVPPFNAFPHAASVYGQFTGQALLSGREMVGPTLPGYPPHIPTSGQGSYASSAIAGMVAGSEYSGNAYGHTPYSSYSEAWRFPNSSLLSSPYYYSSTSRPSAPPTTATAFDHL

[20] = target: T6, Cytochrome P450 1A2 (Homo sapiens, UniProt P05177);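 note: PubChem cytochrome P450 panel assay, CYP1A2 panel member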
T6 sequence (P05177 whole entry): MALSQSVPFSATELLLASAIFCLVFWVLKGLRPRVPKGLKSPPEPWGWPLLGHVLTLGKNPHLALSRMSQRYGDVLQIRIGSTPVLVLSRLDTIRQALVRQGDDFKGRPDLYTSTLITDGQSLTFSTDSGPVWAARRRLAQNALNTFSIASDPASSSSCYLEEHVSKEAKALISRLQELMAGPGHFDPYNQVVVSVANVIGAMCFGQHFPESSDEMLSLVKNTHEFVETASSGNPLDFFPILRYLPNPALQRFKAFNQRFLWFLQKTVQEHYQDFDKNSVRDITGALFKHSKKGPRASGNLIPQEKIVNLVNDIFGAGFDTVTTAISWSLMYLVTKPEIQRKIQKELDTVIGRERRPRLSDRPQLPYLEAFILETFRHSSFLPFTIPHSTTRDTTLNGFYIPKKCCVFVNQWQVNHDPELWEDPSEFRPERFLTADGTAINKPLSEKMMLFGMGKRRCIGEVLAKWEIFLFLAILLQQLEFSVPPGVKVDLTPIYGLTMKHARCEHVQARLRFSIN

[21] = Luminescence-based cell-based high throughput dose response assay to identify activators of the DAF-12 from the parasite S. stercoralis (ssDAF-12).; type: functional
[22] = test system: HEK293; assay: viability loss in HEK293T cells – cell-based, ATP luminescence, cherry-pick samples, cytotoxicity control, dose response (AID 687005); type: functional; details: Homo sapiens;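 note: cells exposed to compound for 48 hours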
[23] = HEK293 Cytotoxicity Assay Measured in Cell-Based System Using Plate Reader - 7071-01_Inhibitor_Dose_CherryPick_Activity_Set2.; type: functional
[24] = test system: Cryptococcus neoformans; assay: PubChem AID 686997; type: functional, organism-based

COc1ccc(NC(=O)[C@@H]2[C@@H]3C(=O)N(C4CCCCC4)C(=O)[C@@H]3C3c4ccccc4C=CN32)cc1 (some centres undefined)
IC50 [1]: 16.3 µM (active) | IC50 [2]: 4.79 µM (active) | IC50 [3]: 10.8 µM (active)

COCCNc1nc(NCc2cnc(C)cn2)c2sccc2n1
IC50 [4]: 20.4 µM (inactive) | IC50 [5]: 13.5 µM (active)

COc1ccc(/N=C2\S/C(=C\c3ccc(Cl)c([N+](=O)[O-])c3)C(=O)N2CCN(C)C)cc1
EC50 [6]: 1.16 µM (active) | EC50 [7]: > 120 µM (not active) | EC50 [8]: 8.97 µM (active) | EC50 [9]: 7.54 µM (active) | EC50 [10]: 2.8 µM (inconclusive) | IC50 [11]: 1.5 µM (active) | EC50 [12]: 9.3 µM (inconclusive) | EC50 [13]: 3.03 µM (inconclusive) | EC50 [14]: 3.18 µM (inconclusive) | AC50 [15]: 10.8 µM (active) | EC50 [16]: 8.46 µM (active) | IC50 [17]: 49.7 µM (inactive)

CC(=O)[C@@]1(O)Cc2c(O)c3c(c(O)c2[C@H](O[C@H]2C[C@H](N)[C@H](O)[C@H](C)O2)C1)C(=O)c1ccccc1C3=O
AC50 [18]: 0.412 µM (active) | AC50 [19]: 3.77 µM (active) | AC50 [20]: 20 µM (inconclusive) | IC50 [21]: > 67.5 µM (inactive)

COC(=O)C1=C(C)N(Cc2ccc(F)cc2)C(=S)NC1c1cccc(Br)c1 (centres undefined)
AC50 [22]: 6.17 µM (active) | AC50 [23]: 6.17 µM (active) | AC50 [24]: 36.7 µM (active)
